Results as given in patent US9288993B2, “Copper resistant, fengycin-producing Bacillus mojavensis strain for controlling vegetable pathogens, its use and compositions containing it” (Szegedi Tudományegyetem, priority 2011, dated 2016).
Where two headings read alike, the source gives them in different places.

Tests used:
Phytophthora infestans = details: 100 ppm copper
plant pathogen fungi = assay: Fengycin concentration of diluted culture inhibiting plant pathogen fungi; format: cell-based; details: culture in glutaminic acid/glucose solution diluted 10-20 times

Compound	growth of Phytophthora infestans strains (Phytophthora infestans)	growth of P. syringae strains (P. syringae; 200 ppm copper)	growth of P. syringae strains (P. syringae; 400 ppm copper)	fengycin concentration which achieves a complete inhibition of the majority of the plant pathogen fungi (plant pathogen fungi)
O=S(=O)([O-])[O-].[Cu+2] [copper, copper-sulphate]	did not show growth anymore	all increased	none of them	
fengycin				10 to 12 mg/L
